What was measured:
patients with PD = assay: CNS symptoms in Stage 2 (UPDRS, MMSE, PDHQ, BDI-II, direct questioning); type: in vivo, human; details: for PDHQ / BDI-II / UPDRS Part 2 (Daily living) / MMSE / UPDRS Part 3 (Motor): mean (SD); for PDHQ: baseline 1.3 (2.99); for BDI-II: baseline 10.9 (7.12); for UPDRS Part 2 (Daily living): baseline 14.9 (8.11); for MMSE: baseline 28.4 (1.75); for UPDRS Part 3 (Motor): baseline 35.3 (14.35)
From the text: Exploratory end-points, in addition to constipation, included for example, (i) depression assessed using the Beck Depression Inventory (BDI-II) (Steer et al. 2000) and Unified Parkinson's Disease Rating Scale (UPDRS); (ii) cognition assessed using the Mini Mental State Examination (MMSE) (Palsteia et al. 2018), Unified Parkinson's Disease Rating Scale (UPDRS), and Trail Making Test (TMT); (iii) sleep and REM-behavior disorder (RBD) using a daily sleep diary, I-Button Temperature Assessment, a REM sleep behavior disorder (RBD) questionnaire (RBDQ) (Stiasny-Kolster et al. 2007), and the UPDRS; (iv) hallucinations assessed using the PD hallucinations questionnaire (PDHQ) (Papapetropoulos et al. 2008), the UPDRS, and direct questioning; (v) fatigue using the Parkinson's Disease Fatigue Scale (PFS-16) and the UPDRS; (vi) motor functions using the UPDRS; and (vii) non-motor functions using the UPDRS.
Assessments were made at baseline and at the end of the fixed dose and washout periods. Circadian system status was evaluated by continuously monitoring wrist skin temperature (Thermochron iButton DS1921H; Maxim, Dallas) following published procedures (Sarabia et al. 2008).
An exploratory analysis was done with respect to the sleep data, the body temperature data, mood, fatigue, hallucinations, cognition and other motor and non-motor symptoms of PD. Continuous measurements within a subject were compared with a paired t-test and continuous measurements between subject groups were compared with a two-group t-test. Categorical data were compared with a chi-squared test or a Fisher's exact test if the expected cell counts are too small for a chi-squared test.
CNS symptoms were evaluated at baseline and at the end of the fixed dose period and the wash-out period (Table 13). Total UPDRS score was 64.4 at baseline, 60.6 at the end of the fixed dose period and 55.7 at the end of the wash-out period (p=0.002); similarly, the motor component of the UPDRS improved from 35.3 at baseline to 33.3 at the end of fixed dose to 30.2 at the end of wash-out (p=0.006). MMSE improved from 28.4 at baseline to 28.7 during treatment and to 29.3 during wash-out (p=0.0006). […] PDHQ improved from 1.3 at baseline to 1.8 during treatment and 0.9 during wash-out (p=0.03). Hallucinations were reported by 5 patients at baseline and delusions in 1 patient. […] The frequency of arm or leg thrashing reported in the sleep diary diminished progressively from 2.2 episodes/week at baseline to 0 at maximal dose. […] Unlike stool-related indices, the improvement in many CNS symptoms persisted during wash-out.

C. elegans αS model = details: in vivo, C. elegans model of PD; cited from earlier work
[1] = Stage 2, n = 34, fixed dose, listed as Squalamine (ENT-01)

## CC(C)[C@@H](CC[C@@H](C)[C@H]1CC[C@H]2[C@@H]3[C@H](O)C[C@H]4C[C@@H](NCCCNCCCCN)CC[C@]4(C)[C@H]3CC[C@]12C)OS(=O)(=O)O (single isomer, unassigned) [squalamine (ENT-01)]
Patients with PD; Stage 2, n = 34, fixed dose
  PDHQ: 1.8
  BDI-II: 9.9
  UPDRS Part 2 (Daily living): 14.7 (9.02)
  MMSE: 28.7
  UPDRS Part 3 (Motor): 33.3
Patients with PD; [1]
  PDHQ: 1.8 (3.34)
  UPDRS Part 3 (Motor): 33.3 (15.20)
Patients with PD; Stage 2, n = 34, wash-out
  PDHQ: 0.9
  BDI-II: 8.7
  UPDRS Part 2 (Daily living): 14.1 (8.21)
  MMSE: 29.3
  UPDRS Part 3 (Motor): 30.2
Patients with PD; Stage 2, n = 34, wash-out, listed as Squalamine (ENT-01)
  UPDRS Part 3 (Motor): 30.2 (13.23)
Patients with PD; one patient, colonic prokinetic dose 175 mg not yet reached
  Dose at which the hallucinations disappeared: 100 mg
C. elegans αS model
  Formation of aggregates of αS: inhibits the formation of αS aggregates

Reference: patent publication US20190298740A1, “METHODS AND COMPOSITIONS FOR TREATING HALLUCINATIONS AND CONDITIONS RELATED TO THE SAME” (Enterin, Inc., priority 2018, published 2019)
